According to US8129544B2, “1-substituted-4-nitroimidazole compound and method for preparing the same” (Otsuka Pharmaceutical Co., Ltd., priority 2002, dated 2012):
In brackets after ≈: the same amount, converted by molar mass.

How the values were obtained:
[1] = tested on: Mycobacterium tuberculosis H37RV; test: Antibiotic test by using an agar plate dilution method; format: cell-based; conditions: 336 h, Culture medium 7H11, inoculum about 10^6 CFU/ml (5 μl), cultivated at 37° C. for 14 days, read-out: Minimum inhibitory concentration

C[C@]1(Cn2cc([N+](=O)[O-])nc2Br)CO1
melting point: 93 to 94 °C

C[C@]1(Cn2cc([N+](=O)[O-])nc2Cl)CO1
melting point: 65.5 to 67 °C

C[C@@]1(Cn2cc([N+](=O)[O-])nc2Br)CO1
melting point: 93 to 94 °C

C[C@]1(CN2CCN(c3ccc(OC(F)(F)F)cc3)CC2)Cn2cc([N+](=O)[O-])nc2O1 [Reference Example 7, (S)-2-[4-(4-trifluoromethoxyphenyl)piperazin-1-ylmethyl]-2-methyl-6-nitro-2,3-dihydroimidazo[2,1-b]oxazole]
MIC [1]: 0.024 µg/mL (≈ 0.0562 µM)
melting point: 129 to 130 °C
